Values after ≈ are worked out from the molar mass of the structure shown.
Tests used:
[1] = 25°C; cited from earlier work
IL-6 = test: Human immune cell line THP-1 in vitro assay, IL-6 measured by ELISA in supernatant; type: cell-based
Procedure: (§1) In this assay, the concentration of IL-6 (Interleukin-6) and the % cell viability are measured. Widening of therapeutic window is indicated by the concentration of Interleukin-6 (IL-6) as measured on the Human Immune cell Line using the THP-1 invitro assay in pg/ml and the % cell viability of THP-1 cells.
(§2) Cells were differentiated in 24-well plates at the density of 5 x 10^5 cells / well with 100 nM PMA for 72 hours. Cells were then co-treated with E.coli lipopolysaccharides (LPS) and single concentration or a combination of piperlongumine and L-cystine at different doses. After 24 hours, the supernatants were collected for measurement of interleukin (IL)-6 as a pro-inflammatory biomarker using enzyme-linked immunosorbent assay (ELISA).

in vitro = settings: human, oral keratinocytes
Procedure: (§3) HOKs (Passage 4-6) were seeded in 96 well-plates at the density of 2 x 10^4 cells / well overnight. On the experimental day the cells were treated with heat killed P.gingivalis and single concentration or a combination of piperlongumine and L-cystine at different doses. After 24 hours, cell viability was measured with cell counting kit-8.

THP-1 cells = settings: human, 24 h, 100 µM
Procedure: as §1, §2

[2] = Human oral keratinocytes (HOK) in vitro assay, cell viability by cell counting kit-8; settings: human, oral keratinocytes, Cell viability (%), Table 3, Piperlongumine 15 µM, HOKs treated with heat killed P.gingivalis, Control 100
Procedure: as §3

[3] = system: Human oral keratinocytes (HOK); test: as above; settings: Table 3; Piperlongumine 15 µM, HOKs treated with heat killed P.gingivalis, 24 hours; Control 100; 1440 min, 15 µM
Procedure: as §3

[4] = Human immune cell line THP-1 in vitro assay, cell viability; settings: thp-1 cells, Cell viability (%)
Procedure: as §1, §2

N[C@@H](CSSC[C@H](N)C(=O)O)C(=O)O [L-cystine]
Solubility in water [1]: 112 µg/mL (≈ 466 µM) | Concentration of IL-6 (IL-6; Table 1, L-cystine 100 µM, co-treated with E.coli LPS, 24 hours, Control 98, LPS alone 2252): 1896 pg/mL | viability at 24 h, 50 µM (in vitro): 102% | viability at 24 h, 100 µM (in vitro): 109%

Vitamin E [reference compound]
Cell viability (%) (THP-1 cells): 73% | Concentration of IL-6 (IL-6; Table 2, Vitamin E 100 µM, Control 122, LPS alone 3953): 2998 pg/mL

COc1cc(/C=C/C(=O)N2CCC=CC2=O)cc(OC)c1OC [Piperlongumine, 5,6-dihydro-1-[(2E)-1-oxo-3-(3,4,5-trimethoxyphenyl)-2-propenyl]-2(1 H)-pyridinone]
viability at 24 h, 15 µM [2]: 63.4% | Cell viability (%) [3]: 63.38% | viability at 24 h, 5 µM ([4]; Table 1, Piperlongumine 5 µM, co-treated with E.coli LPS, 24 hours, Control 100, LPS alone 91): 100% | viability at 24 h, 10 µM ([4]; Table 1, Piperlongumine 10 µM, co-treated with E.coli LPS, 24 hours, Control 100, LPS alone 91): 74% | viability at 24 h, 10 µM ([4]; Table 2, Piperlongumine 10 µM, Control 100, LPS alone 86): 39% | Concentration of IL-6 (IL-6; Table 1, Piperlongumine 5 µM, co-treated with E.coli LPS, 24 hours, Control 98, LPS alone 2252): 103 pg/mL | Concentration of IL-6 (IL-6; Table 1, Piperlongumine 10 µM, co-treated with E.coli LPS, 24 hours, Control 98, LPS alone 2252): 117 pg/mL | Concentration of IL-6 (IL-6; Table 2, Piperlongumine 10 µM, Control 122, LPS alone 3953): 91 pg/mL

Reference: patent publication EP3785697A1, “COSMETIC COMPOSITIONS COMPRISING PIPERLONGUMINE” (Unilever N.V., priority 2019, dated 2021)
